In one assay the target is T1, PAC1-R (Homo sapiens, UniProt P41586).
T1 construct: expressed in transfected cells; host or cells: PAC1-CHO cells (CHO cells expressing PAC1-R); That they are transfected is inferred from the cell line's name
T1 sequence (P41586 21-468): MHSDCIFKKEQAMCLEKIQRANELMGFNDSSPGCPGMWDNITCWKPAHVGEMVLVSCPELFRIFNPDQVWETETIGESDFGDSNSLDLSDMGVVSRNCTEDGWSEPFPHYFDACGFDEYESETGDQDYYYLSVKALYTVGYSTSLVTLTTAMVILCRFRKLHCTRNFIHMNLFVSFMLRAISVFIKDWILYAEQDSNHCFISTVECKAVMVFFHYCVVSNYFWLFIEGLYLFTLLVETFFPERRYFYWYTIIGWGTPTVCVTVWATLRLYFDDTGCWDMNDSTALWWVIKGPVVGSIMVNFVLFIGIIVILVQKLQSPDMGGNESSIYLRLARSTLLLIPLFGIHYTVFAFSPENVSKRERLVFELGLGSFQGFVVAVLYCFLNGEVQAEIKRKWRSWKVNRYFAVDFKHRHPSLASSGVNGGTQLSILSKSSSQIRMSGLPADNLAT
Put plainly: cAMP accumulation assay in PAC1-CHO cells. It counts as cell-based. To be noted: DMEM, 37 °C, 5-10 min, enzyme immunoassay for cAMP, % of maximal cAMP level with PACAP27, means ± SEM of four experiments, read-out: EC50 (activation of PAC1-R, cAMP accumulation). On the procedure: PAC1-CHO cells cultured in Dulbecco’s Modified Eagle’s Medium (DMEM) at 37 °C were scraped off the surface with rubber policeman, washed twice with PBS and the density of the cells was adjusted to 2 × 10^6 /mL. Peptides were added to 500 uL cells suspension with the corresponding varying working concentrations of the detected factor. After incubation at 37 °C for 5-10 min cells were harvested and the lysates were subjected to cAMP quantification using the enzyme immunoassay kit for cAMP (Biyuntian, Shanghai, China), following the manufacturer’s instructions. Protein concentration of each sample was determined using BCA assay, and the cAMP level of each sample was calculated following the formula: cAMP level (pmol/mg protein) = cAMP concentration (pmol/mL)/protein concentration (mg/mL). The cAMP level in each sample was plotted as the percentage (%) of the maximal cAMP level in cells treated with PACAP27 versus the logarithmic value of the peptide concentrations. All experiments were run with at least four parallel samples and were repeated three times.
The data are means ± SEM of four experiments

For assay [1] the following is noted: ref Steingart et al. [2000]; cited from earlier work. An excerpt: VIP is an important neuromodulator along the visual transmission pathways, not only in the retina, but all the way to the cortex where it influences visual information processing (Galletti and Fattori [2018]; Wilson and Glickfeld [2014]). Regarding retinoprotection, a few studies i ...

For the molecule `CC[C@H](C)[C@H](NC(=O)[C@H](CO)NC(=O)[C@H](CC(N)=O)NC(=O)[C@H](CC(C)C)NC(=O)[C@H](Cc1ccc(O)cc1)NC(=O)[C@H](CCCCN)NC(=O)[C@H](CCCCN)NC(=O)[C@@H](NC(=O)[C@H](C)NC(=O)[C@H](CCSC)NC(=O)[C@H](CCC(N)=O)NC(=O)[C@H](CCCCN)NC(=O)[C@H](CCCN=C(N)N)NC(=O)[C@H](CC(C)C)NC(=O)[C@H](CCCN=C(N)N)NC(=O)[C@@H](NC(=O)[C@H](Cc1ccc(O)cc1)NC(=O)[C@H](CC(N)=O)NC(=O)[C@H](CC(=O)O)NC(=O)[C@@H](NC(=O)[C@H](Cc1ccccc1)NC(=O)[C@@H](NC(=O)[C@H](C)NC(=O)[C@H](CC(=O)O)NC(=O)[C@H](CO)NC(=O)[C@@H](N)Cc1c[nH]cn1)C(C)C)[C@@H](C)O)[C@@H](C)O)C(C)C)C(=O)N[C@@H](CC(C)C)C(=O)N[C@@H](CC(N)=O)C(N)=O` [VIP, vasoactive intestinal peptide, reference compound], the EC50 (as a rule, the midpoint of the concentration-response curve) on PAC1-R worked out at 30.1 ± 4.1 nM.

B1: activity-dependent neurotrophic protein (protein, UniProt Q9H2P0 1-1102, looked up)
Activity-dependent …: MFQLPVNNLGSLRKARKTVKKILSDIGLEYCKEHIEDFKQFEPNDFYLKNTTWEDVGLWDPSLTKNQDYRTKPFCCSACPFSSKFFSAYKSHFRNVHSEDFENRILLNCPYCTFNADKKTLETHIKIFHAPNASAPSSSLSTFKDKNKNDGLKPKQADSVEQAVYYCKKCTYRDPLYEIVRKHIYREHFQHVAAPYIAKAGEKSLNGAVPLGSNAREESSIHCKRCLFMPKSYEALVQHVIEDHERIGYQVTAMIGHTNVVVPRSKPLMLIAPKPQDKKSMGLPPRIGSLASGNVRSLPSQQMVNRLSIPKPNLNSTGVNMMSSVHLQQNNYGVKSVGQGYSVGQSMRLGLGGNAPVSIPQQSQSVKQLLPSGNGRSYGLGSEQRSQAPARYSLQSANASSLSSGQLKSPSLSQSQASRVLGQSSSKPAAAATGPPPGNTSSTQKWKICTICNELFPENVYSVHFEKEHKAEKVPAVANYIMKIHNFTSKCLYCNRYLPTDTLLNHMLIHGLSCPYCRSTFNDVEKMAAHMRMVHIDEEMGPKTDSTLSFDLTLQQGSHTNIHLLVTTYNLRDAPAESVAYHAQNNPPVPPKPQPKVQEKADIPVKSSPQAAVPYKKDVGKTLCPLCFSILKGPISDALAHHLRERHQVIQTVHPVEKKLTYKCIHCLGVYTSNMTASTITLHLVHCRGVGKTQNGQDKTNAPSRLNQSPSLAPVKRTYEQMEFPLLKKRKLDDDSDSPSFFEEKPEEPVVLALDPKGHEDDSYEARKSFLTKYFNKQPYPTRREIEKLAASLWLWKSDIASHFSNKRKKCVRDCEKYKPGVLLGFNMKELNKVKHEMDFDAEWLFENHDEKDSRVNASKTADKKLNLGKEDDSSSDSFENLEEESNESGSPFDPVFEVEPKISNDNPEEHVLKVIPEDASESEEKLDQKEDGSKYETIHLTEEPTKLMHNASDSEVDQDDVVEWKDGASPSESGPGSQQVSDFEDNTCEMKPGTWSDESSQSEDARSSKPAAKKKATMQGDREQLKWKNSSYGKVEGFWSKDQSQWKNASENDERLSNPQIEWQNSTIDSEDGEQFDNMTDGVAEPMHGSLAGVKLSSQQA
Regarding B1, in assay [1], the “Protection against a variety of stress factors” value is “strong protection against a variety of stress factors”.

Source of the values: publication PMC6581923 (Journal of Molecular Neuroscience, 2018).
